Values quoted from earlier work in US11575141B2 (Robert Bosch GmbH, priority 2020, dated 2023).
Where two headings read alike, the source gives them in different places.

| SMILES | pKa values (pKa source in footnotes) (first pKa value listed) | pKa values (pKa source in footnotes) (fourth pKa value listed) | pKa values (pKa source in footnotes) (second pKa value listed) | pKa values (pKa source in footnotes) (third pKa value listed) |
| --- | --- | --- | --- | --- |
| O=P(O)(O)OP(=O)(O)OP(=O)(O)O [Example 5, Triphosphoric acid] | 0.89 ^3 | – | – | – |
| O=P(O)(O)P(=O)(O)O [Example 2, Hypophosphoric acid] | 2.2 | 10.0 | 2.8 | 7.3 |
| NP(=O)(O)O [Example 10, Phosphoramidate] | ~3.4 | – | ~8.3 | – |
| O=[PH](O)O [Example 14, Phosphonic acid] | 1.1-2.3 | – | 5.3-7.2 | – |
